Earlier results, collected in patent US20220273645A1, “NALTREXONE FORMULATION” (INTAS PHARMACEUTICALS LTD., priority 2019, published 2022).

Legend:
[1] = system: children with moderate to severe Crohn's disease; conditions: sole therapy in children with moderate-to-severe Crohn's disease
Crohn's disease = conditions: low dose; versus other standard therapy

O=C1CC[C@@]2(O)[C@H]3Cc4ccc(O)c5c4[C@@]2(CCN3CC2CC2)[C@H]1O5 [low dose naltrexone, (4R,4aS,7aR,12bS)-3-(cyclopropylmethyl)-4a,9-dihydroxy-2,4,5,6,7a,13-hexahydro-1H-4,12-methano benzofuro[3,2-e]isoquinoline-7-one]
tolerability / serious adverse events [1]: well tolerated without any serious adverse events | safety and effectiveness for the treatment of Crohn's disease (Crohn's disease): safe, effective
